From patent US10130615B2, “Benzomorphan analogs and the use thereof” (priority 2014, dated 2018) come the findings set out here.

Experiment [1] has as its target T1, ORL-1 receptor (Homo sapiens, UniProt P41146).
T1 construct: host or cells: HEK-293
Description: ORL-1 receptor radioligand binding assay ([3H]-nociceptin). Conditions: HEK-293 or CHO cells; read-out: Ki (nM) Opioid Receptor ORL-1. On the procedure: ORL-1 Receptor Binding Assay Procedure: Membranes from recombinant HEK-293 cells expressing the human opioid receptor-like receptor (ORL-1) (Perkin Elmer, Shelton, Conn.) were prepared by lysing cells in ice-cold hypotonic buffer (2.5 mM MgCl2, 50 mM HEPES, pH 7.4) (10 ml/10 cm dish) followed by homogenization with a tissue grinder/Teflon pestle. Membranes were collected by centrifugation at 30,000×g for 15 min at 4° C. and pellets resuspended in hypotonic buffer to a final concentration of 1-3 mg/ml. Protein concentrations were determined using the BioRad protein assay reagent with bovine serum albumen as standard. Aliquots of the ORL-1 receptor membranes were stored at −80° C.
Radioligand binding assays (screening and dose-displacement) used 0.1 nM [^3H]-nociceptin (Perkin Elmer, Shelton, Conn.; 87.7 Ci/mmole) with 12 μg membrane protein in a final volume of 500 μl binding buffer (10 mM MgCl2, 1 mM EDTA, 5% DMSO, 50 mM HEPES, pH 7.4). Non-specific binding was determined in the presence of […] unlabeled nociceptin (American Peptide Company). All reactions were performed in 96-deep well polypropylene plates for 1 h at room temperature. […] The data from screening and dose-displacement experiments were analyzed using Microsoft Excel and the curve fitting functions in GraphPad PRISM™, v. 3.0 or higher, respectively, or an in-house function for one-site competition curve-fitting.

For experiment [2], the target named is T2, μ-opioid receptor (Homo sapiens, UniProt P35372). The experiment in a line: cell-based. Further details: purchased Perkin Elmer, Shelton, Conn. To be noted: U2OS cells; for EC50: read-out: β-Arr2 μ EC50; for Emax: read-out: β-Arr2 μ Emax.
Experiment [3] addresses T2, μ-opioid receptor. The experiment in a line: biochemical. Further details: purchased Perkin Elmer, Shelton, Conn; host or cells: HEK-293 or CHO. To be noted: HEK-293 or CHO cells; for EC50: read-out: GTPγS μ EC50; for Emax: relative to DAMGO, read-out: GTPγS μ Emax.

T2 sequence (P35372 whole entry, species assumed): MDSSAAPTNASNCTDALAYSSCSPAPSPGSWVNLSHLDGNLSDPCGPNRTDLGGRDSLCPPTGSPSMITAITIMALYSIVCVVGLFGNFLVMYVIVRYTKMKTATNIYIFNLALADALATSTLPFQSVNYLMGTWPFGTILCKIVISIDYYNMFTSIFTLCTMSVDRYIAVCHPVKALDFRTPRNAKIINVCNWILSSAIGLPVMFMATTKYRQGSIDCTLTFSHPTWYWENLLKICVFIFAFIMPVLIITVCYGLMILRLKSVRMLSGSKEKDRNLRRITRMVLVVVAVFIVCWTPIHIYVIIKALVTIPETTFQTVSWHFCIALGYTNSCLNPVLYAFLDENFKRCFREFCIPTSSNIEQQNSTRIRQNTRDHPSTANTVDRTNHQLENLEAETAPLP
T1 sequence (P41146 whole entry): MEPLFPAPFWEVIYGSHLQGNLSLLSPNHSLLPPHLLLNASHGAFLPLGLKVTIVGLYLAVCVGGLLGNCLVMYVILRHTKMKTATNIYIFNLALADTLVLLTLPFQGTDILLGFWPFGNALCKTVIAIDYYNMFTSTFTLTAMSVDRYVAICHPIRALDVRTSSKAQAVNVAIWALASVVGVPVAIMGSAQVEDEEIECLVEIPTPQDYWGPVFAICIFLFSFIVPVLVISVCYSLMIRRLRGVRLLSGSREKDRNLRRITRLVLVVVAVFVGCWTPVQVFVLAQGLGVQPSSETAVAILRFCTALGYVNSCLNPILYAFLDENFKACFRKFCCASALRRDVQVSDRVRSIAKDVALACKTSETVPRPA

As for `C[C@H]1[C@H]2Cc3ccc(O)cc3C1(CCN[C@H]1C[C@H]3CCC[C@@H](C1)N3[C@@H]1C[C@@H]3CCCC[C@@H](C3)C1)CCN2C` [Compound 63, (2R,6R,11R)-6-(2-(((1R,3R,5S)-9-((1R,6S,8r)-bicyclo[4.3.1]decan-8-yl)-9-azabicyclo[3.3.1]nonan-3-yl)amino)-ethyl)-3,11-dimethyl-1,2,3,4,5,6-hexahydro-2,6-methanobenzo[d]azocin-8-ol], the inhibition constant Ki in experiment [1] turned out to be 125 ± 24.2 nM. In experiment [2], the EC50 came to 1.23 ± 0.31 nM and the Emax is 21.8 ± 1.31%. In experiment [3], the EC50 was 2.43 ± 0.67 nM and the Emax amounted to 74.7 ± 2.4%.
The like results for `C[C@H]1[C@H]2Cc3ccc(O)cc3C1(CCN[C@H]1C[C@H]3CCC[C@@H](C1)N3CC[C@@H]1CC[C@H]3C[C@@H]1C3(C)C)CCN2C` [Compound 64, (2R,6R,11R)-6-(2-(((1R,3S,5S)-9-(2-((1S,2S,5S)-6,6-dimethylbicyclo-[3.1.1]heptan-2-yl)ethyl)-9-azabicyclo-[3.3.1]nonan-3-yl)amino)ethyl)-3,11-dimethyl-1,2,3,4,5,6-hexahydro-2,6-methanobenzo[d]azocin-8-ol] were, in that order, 563 ± 97.5 nM, 7450 ± 929 nM, 51.8 ± 7.76%, 19.6 ± 5.19 nM and 43.5 ± 2.96%.
